# Laboratory results reported in ChEMBL document CHEMBL3885861, “Open TG-GATES”.
# Species: Rattus norvegicus
# Test: Open TG-GATES - Regimen: Daily Repeat
# Type: toxicity, organism-based, Sprague-Dawley
# Set-up: regimen Daily Repeat, gender Male, age 6 weeks
# Settings: in vivo, po, 500 mg/kg, route gavage, dose level High; for APTT / Bas / Eos / Fbg / Hb / Ht / Lym / MCH / MCHC / MCV / Mono / Neu / PT / Plat / RBC / Ret / WBC: tissue Blood; for KIDNEY_L / KIDNEY_R / KIDNEY_TOTAL: tissue Kidney; for LIVER: tissue Liver; for A/G / ALP / ALT / AST / BUN / CRE / Ca / Cl / DBIL / GLC / IP / K / LDH / Na / PL / RALB / TBIL / TC / TG / TP / gamma-GTP: tissue Plasma
compound,measurement,setting,value
CN1C(=O)CCS(=O)(=O)C1c1ccc(Cl)cc1 (configuration not stated) [CHLORMEZANONE],TERMINAL_BW,"72 h, time 3 day",218.1 g
same,APTT,"72 h, time 3 day",22.2 s
same,Bas,"72 h, time 3 day",0%
same,Eos,"72 h, time 3 day",1%
same,Fbg,"72 h, time 3 day",285.2 mg/dL
same,Hb,"72 h, time 3 day",13.2 g/dL
same,Ht,"72 h, time 3 day",38.9%
same,Lym,"72 h, time 3 day",75.2%
same,MCH,"72 h, time 3 day",21.2 pg
same,MCHC,"72 h, time 3 day",33.9%
same,MCV,"72 h, time 3 day",62.8 fL
same,Mono,"72 h, time 3 day",3.2%
same,Neu,"72 h, time 3 day",20.2%
same,PT,"72 h, time 3 day",11.4 s
same,Plat,"72 h, time 3 day",115.7 x10_4/uL
same,RBC,"72 h, time 3 day",620.2 x10_4/ul
same,Ret,"72 h, time 3 day",5.3%
same,WBC,"72 h, time 3 day",90.9 x10_2/uL
same,KIDNEY_L,"72 h, time 3 day",0.9 g
same,KIDNEY_R,"72 h, time 3 day",0.9 g
same,KIDNEY_TOTAL,"72 h, time 3 day",1.9 g
same,LIVER,"72 h, time 3 day",13.5 g
same,A/G,"72 h, time 3 day",0.9
same,ALP,"72 h, time 3 day",1900.8 IU/L
same,ALT,"72 h, time 3 day",60.6 IU/L
same,AST,"72 h, time 3 day",77.2 IU/L
same,BUN,"72 h, time 3 day",12.6 mg/dL
same,CRE,"72 h, time 3 day",0.2 mg/dL
same,Ca,"72 h, time 3 day",10.8 mg/dL
same,Cl,"72 h, time 3 day",107.2 meq/L
same,DBIL,"72 h, time 3 day",0.02 mg/dL
same,GLC,"72 h, time 3 day",179.4 mg/dL
same,IP,"72 h, time 3 day",6.9 mg/dL
same,K,"72 h, time 3 day",4.3 meq/L
same,LDH,"72 h, time 3 day",101.4 IU/L
same,Na,"72 h, time 3 day",142 meq/L
same,PL,"72 h, time 3 day",157.6 mg/dL
same,RALB,"72 h, time 3 day",2.6 g/dL
same,TBIL,"72 h, time 3 day",0.05 mg/dL
same,TC,"72 h, time 3 day",84.6 mg/dL
same,TG,"72 h, time 3 day",99.4 mg/dL
same,TP,"72 h, time 3 day",5.6 g/dL
same,gamma-GTP,"72 h, time 3 day",1.6 IU/L
same,TERMINAL_BW,"[…], time 7 day",254.1 g
same,TERMINAL_BW,"[…], time 14 day",312.8 g
same,TERMINAL_BW,"[…], time 28 day",364.7 g
same,APTT,"[…], time 7 day",22 s
same,Bas,"[…], time 7 day",0%
same,Eos,"[…], time 7 day",0.8%
same,Fbg,"[…], time 7 day",341.2 mg/dL
same,Hb,"[…], time 7 day",12.6 g/dL
same,Ht,"[…], time 7 day",37.3%
same,Lym,"[…], time 7 day",70.4%
same,MCH,"[…], time 7 day",20.9 pg
same,MCHC,"[…], time 7 day",33.9%
same,MCV,"[…], time 7 day",61.5 fL
same,Mono,"[…], time 7 day",3.2%
same,Neu,"[…], time 7 day",24.8%
same,PT,"[…], time 7 day",11.5 s
same,Plat,"[…], time 7 day",147.1 x10_4/uL
same,RBC,"[…], time 7 day",606.6 x10_4/ul
same,Ret,"[…], time 7 day",6.9%
same,WBC,"[…], time 7 day",116.2 x10_2/uL
same,APTT,"[…], time 14 day",24.3 s
same,Bas,"[…], time 14 day",0%
same,Eos,"[…], time 14 day",0.6%
same,Fbg,"[…], time 14 day",314.6 mg/dL
same,Hb,"[…], time 14 day",13.4 g/dL
same,Ht,"[…], time 14 day",38.7%
same,Lym,"[…], time 14 day",76.8%
same,MCH,"[…], time 14 day",20.6 pg
same,MCHC,"[…], time 14 day",34.8%
same,MCV,"[…], time 14 day",59.4 fL
same,Mono,"[…], time 14 day",3.6%
same,Neu,"[…], time 14 day",18.2%
same,PT,"[…], time 14 day",12 s
same,Plat,"[…], time 14 day",122.7 x10_4/uL
same,RBC,"[…], time 14 day",651.4 x10_4/ul
same,Ret,"[…], time 14 day",6.4%
same,WBC,"[…], time 14 day",112.6 x10_2/uL
same,APTT,"[…], time 28 day",28.5 s
same,Bas,"[…], time 28 day",0%
same,Eos,"[…], time 28 day",1.2%
same,Fbg,"[…], time 28 day",286.4 mg/dL
same,Hb,"[…], time 28 day",13 g/dL
same,Ht,"[…], time 28 day",37.8%
same,Lym,"[…], time 28 day",77%
same,MCH,"[…], time 28 day",20.2 pg
same,MCHC,"[…], time 28 day",34.5%
same,MCV,"[…], time 28 day",58.5 fL
same,Mono,"[…], time 28 day",1.8%
same,Neu,"[…], time 28 day",19.6%
same,PT,"[…], time 28 day",12.6 s
same,Plat,"[…], time 28 day",119.4 x10_4/uL
same,RBC,"[…], time 28 day",646.6 x10_4/ul
same,Ret,"[…], time 28 day",7.6%
same,WBC,"[…], time 28 day",126.7 x10_2/uL
same,KIDNEY_L,"[…], time 7 day",1 g
same,KIDNEY_R,"[…], time 7 day",1 g
same,KIDNEY_TOTAL,"[…], time 7 day",2 g
same,KIDNEY_L,"[…], time 14 day",1.2 g
same,KIDNEY_R,"[…], time 14 day",1.2 g
same,KIDNEY_TOTAL,"[…], time 14 day",2.4 g
same,KIDNEY_L,"[…], time 28 day",1.3 g
same,KIDNEY_R,"[…], time 28 day",1.3 g
same,KIDNEY_TOTAL,"[…], time 28 day",2.5 g
same,LIVER,"[…], time 7 day",16 g
same,LIVER,"[…], time 14 day",19 g
same,LIVER,"[…], time 28 day",20.4 g
same,A/G,"[…], time 7 day",0.9
same,ALP,"[…], time 7 day",1196.8 IU/L
same,ALT,"[…], time 7 day",48.2 IU/L
same,AST,"[…], time 7 day",59.8 IU/L
same,BUN,"[…], time 7 day",16.6 mg/dL
same,CRE,"[…], time 7 day",0.2 mg/dL
same,Ca,"[…], time 7 day",11.7 mg/dL
same,Cl,"[…], time 7 day",106 meq/L
same,DBIL,"[…], time 7 day",0.016 mg/dL
same,GLC,"[…], time 7 day",202.2 mg/dL
same,IP,"[…], time 7 day",7 mg/dL
same,K,"[…], time 7 day",4.2 meq/L
same,LDH,"[…], time 7 day",96.2 IU/L
same,Na,"[…], time 7 day",143.6 meq/L
same,PL,"[…], time 7 day",144.8 mg/dL
same,RALB,"[…], time 7 day",3 g/dL
same,TBIL,"[…], time 7 day",0.032 mg/dL
same,TC,"[…], time 7 day",80.6 mg/dL
same,TG,"[…], time 7 day",70.2 mg/dL
same,TP,"[…], time 7 day",6.3 g/dL
same,gamma-GTP,"[…], time 7 day",1.8 IU/L
same,A/G,"[…], time 14 day",0.9
same,ALP,"[…], time 14 day",1377.8 IU/L
same,ALT,"[…], time 14 day",57.2 IU/L
same,AST,"[…], time 14 day",62.4 IU/L
same,BUN,"[…], time 14 day",16.4 mg/dL
same,CRE,"[…], time 14 day",0.2 mg/dL
same,Ca,"[…], time 14 day",11.4 mg/dL
same,Cl,"[…], time 14 day",106 meq/L
same,DBIL,"[…], time 14 day",0.018 mg/dL
same,GLC,"[…], time 14 day",195.6 mg/dL
same,IP,"[…], time 14 day",7.1 mg/dL
same,K,"[…], time 14 day",4.2 meq/L
same,LDH,"[…], time 14 day",122.6 IU/L
same,Na,"[…], time 14 day",143.8 meq/L
same,PL,"[…], time 14 day",149 mg/dL
same,RALB,"[…], time 14 day",2.9 g/dL
same,TBIL,"[…], time 14 day",0.084 mg/dL
same,TC,"[…], time 14 day",75 mg/dL
same,TG,"[…], time 14 day",88 mg/dL
same,TP,"[…], time 14 day",6.4 g/dL
same,gamma-GTP,"[…], time 14 day",2 IU/L
same,A/G,"[…], time 28 day",0.8
same,ALP,"[…], time 28 day",1039.2 IU/L
same,ALT,"[…], time 28 day",55.2 IU/L
same,AST,"[…], time 28 day",59.6 IU/L
same,BUN,"[…], time 28 day",16.8 mg/dL
same,CRE,"[…], time 28 day",0.3 mg/dL
same,Ca,"[…], time 28 day",10.6 mg/dL
same,Cl,"[…], time 28 day",106.4 meq/L
same,DBIL,"[…], time 28 day",0.014 mg/dL
same,GLC,"[…], time 28 day",188.8 mg/dL
same,IP,"[…], time 28 day",6.1 mg/dL
same,K,"[…], time 28 day",4.2 meq/L
same,LDH,"[…], time 28 day",70.8 IU/L
same,Na,"[…], time 28 day",143.6 meq/L
same,PL,"[…], time 28 day",148 mg/dL
same,RALB,"[…], time 28 day",2.9 g/dL
same,TBIL,"[…], time 28 day",0.082 mg/dL
same,TC,"[…], time 28 day",76 mg/dL
same,TG,"[…], time 28 day",67 mg/dL
same,TP,"[…], time 28 day",6.5 g/dL
same,gamma-GTP,"[…], time 28 day",2.4 IU/L
